From article PMC3383612 (Chemical biology & drug design, 2011)

Key:
[1] = biological target: ASADH (Vibrio cholerae serotype O1, UniProt Q9KQG2); experiment: Kinetic inhibition of ASADH by substrate analogue; format: biochemical; details: inhibitor of ASADH, enzyme form not stated
[2] = biological target: T1, spASADH (Streptococcus pneumoniae, UniProt Q8DQ00); details: in words; ref [14]; cited from earlier work
T1 sequence (Q8DQ00 1-358): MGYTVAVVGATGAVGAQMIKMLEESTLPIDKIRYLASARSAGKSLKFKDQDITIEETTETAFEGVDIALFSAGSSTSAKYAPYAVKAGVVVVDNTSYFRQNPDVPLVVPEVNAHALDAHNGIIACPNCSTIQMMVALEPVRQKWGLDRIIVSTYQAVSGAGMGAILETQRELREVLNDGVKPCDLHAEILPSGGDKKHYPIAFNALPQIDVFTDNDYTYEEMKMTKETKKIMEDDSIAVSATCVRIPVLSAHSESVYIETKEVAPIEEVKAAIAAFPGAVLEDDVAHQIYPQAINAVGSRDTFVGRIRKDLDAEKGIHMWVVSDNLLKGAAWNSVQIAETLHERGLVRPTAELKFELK

[3] = biological target: T1, spASADH; experiment: Kinetic inhibition of spASADH; format: biochemical

ASADH, sequence (Q9KQG2 whole entry): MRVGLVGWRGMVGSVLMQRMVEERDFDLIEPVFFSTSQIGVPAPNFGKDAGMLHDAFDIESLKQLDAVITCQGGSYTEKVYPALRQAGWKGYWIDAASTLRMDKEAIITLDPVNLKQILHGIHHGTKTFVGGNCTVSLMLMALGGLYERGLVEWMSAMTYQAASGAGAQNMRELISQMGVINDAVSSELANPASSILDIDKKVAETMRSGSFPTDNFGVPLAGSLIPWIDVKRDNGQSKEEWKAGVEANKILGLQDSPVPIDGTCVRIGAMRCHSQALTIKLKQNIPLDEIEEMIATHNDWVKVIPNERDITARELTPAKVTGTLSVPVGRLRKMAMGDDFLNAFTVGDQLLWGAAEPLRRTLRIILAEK

**Q.** For `C=CC[S@+]([O-])C[C@H](N)C(=O)O` [S-allyl-L-cysteine sulfoxide], which Ki [1] is on record?
**A.** 8 µM

**Q.** For `NC(CCCC(=O)O)C(=O)O` (racemic) [DL-2-aminoadipate], which inhibitory activity [2] is on record?
**A.** little inhibitory activity

**Q.** Which Ki [3] does the source give for `O=C(O)c1ccc(C(=O)O)cc1` [Terephthalic acid, benzene-1,4-dicarboxylic acid] here?
**A.** ~5000 µM

**Q.** Which Ki [3] does the source give for `Nc1cc(C(=O)O)ccc1C(=O)O` [2-aminoterephthalate] here?
**A.** 780 µM

**Q.** What about the “enhanced affinity relative to terephthalic acid” value ([3]; ratio of Ki values) of the same compound?
**A.** greater than 6 fold

**Q.** For `O=C(O)C1CCC(C(=O)O)CC1` (stereo not drawn) [cyclohexane-1,4-dicarboxylate], which “higher affinity than 2-aminoterephthalate” value ([3]; ratio of Ki values) is on record?
**A.** 2 fold
